The molecules below were run against 5'-AMP-activated protein kinase catalytic subunit alpha-2 (Homo sapiens) (UniProt P54646).

| ΔTm | Compound |
| --- | --- |
| -0.2 °C | N#C/C(=C\c1ccc(O)c(O)c1)C(=O)NCc1ccccc1 |
| -0.5 °C | COc1cc2ncnc(Nc3cccc(Br)c3)c2cc1OC |

What follows are molecules tested against Calcium/calmodulin-dependent protein kinase type II subunit alpha (Homo sapiens) (UniProt Q9UQM7).
Sequence of Calcium/calmodulin-dependent protein kinase type II subunit alpha (Homo sapiens) (Q9UQM7 whole entry): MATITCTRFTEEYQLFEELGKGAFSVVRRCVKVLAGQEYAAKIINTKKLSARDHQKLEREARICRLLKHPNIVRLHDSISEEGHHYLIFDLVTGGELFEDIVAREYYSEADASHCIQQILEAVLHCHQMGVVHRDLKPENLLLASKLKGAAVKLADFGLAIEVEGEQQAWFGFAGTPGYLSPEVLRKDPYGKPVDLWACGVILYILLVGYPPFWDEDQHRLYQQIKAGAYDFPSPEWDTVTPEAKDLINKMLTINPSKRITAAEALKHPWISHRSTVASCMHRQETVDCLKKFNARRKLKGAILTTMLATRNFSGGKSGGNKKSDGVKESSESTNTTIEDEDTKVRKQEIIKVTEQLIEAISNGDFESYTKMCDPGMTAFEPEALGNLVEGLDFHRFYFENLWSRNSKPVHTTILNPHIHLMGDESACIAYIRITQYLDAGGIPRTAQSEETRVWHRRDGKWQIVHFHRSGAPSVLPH

| ΔTm | Compound |
| --- | --- |
| 0.4 °C | N#C/C(=C\c1ccc(O)c(O)c1)C(=O)NCc1ccccc1 |
| 0.5 °C | COc1cc2ncnc(Nc3cccc(Br)c3)c2cc1OC |

Each molecule was assayed against T1, Calcium/calmodulin-dependent protein kinase type IV (Homo sapiens) (UniProt Q16566).
T1 sequence (whole entry): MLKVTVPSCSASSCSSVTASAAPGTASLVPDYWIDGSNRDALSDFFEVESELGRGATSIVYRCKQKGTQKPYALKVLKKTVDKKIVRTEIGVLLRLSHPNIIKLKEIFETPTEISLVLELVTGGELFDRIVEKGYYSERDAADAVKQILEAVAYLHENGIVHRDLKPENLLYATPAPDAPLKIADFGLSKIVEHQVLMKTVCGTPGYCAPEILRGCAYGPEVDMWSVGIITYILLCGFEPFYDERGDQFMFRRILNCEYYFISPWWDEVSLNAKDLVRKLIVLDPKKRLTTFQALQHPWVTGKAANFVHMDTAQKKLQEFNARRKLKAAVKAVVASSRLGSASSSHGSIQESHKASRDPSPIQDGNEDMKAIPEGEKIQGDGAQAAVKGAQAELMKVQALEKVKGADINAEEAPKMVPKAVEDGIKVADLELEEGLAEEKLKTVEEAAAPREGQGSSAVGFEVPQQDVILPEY

| ΔTm | Compound |
| --- | --- |
| 0.6 °C | N#C/C(=C\c1ccc(O)c(O)c1)C(=O)NCc1ccccc1 |
| 0.1 °C | COc1cc2ncnc(Nc3cccc(Br)c3)c2cc1OC |

Each molecule was assayed against Calcium/calmodulin-dependent protein kinase kinase 2 (Homo sapiens, UniProt Q96RR4).
Sequence of Calcium/calmodulin-dependent protein kinase kinase 2 (Q96RR4 2-588 limits assumed): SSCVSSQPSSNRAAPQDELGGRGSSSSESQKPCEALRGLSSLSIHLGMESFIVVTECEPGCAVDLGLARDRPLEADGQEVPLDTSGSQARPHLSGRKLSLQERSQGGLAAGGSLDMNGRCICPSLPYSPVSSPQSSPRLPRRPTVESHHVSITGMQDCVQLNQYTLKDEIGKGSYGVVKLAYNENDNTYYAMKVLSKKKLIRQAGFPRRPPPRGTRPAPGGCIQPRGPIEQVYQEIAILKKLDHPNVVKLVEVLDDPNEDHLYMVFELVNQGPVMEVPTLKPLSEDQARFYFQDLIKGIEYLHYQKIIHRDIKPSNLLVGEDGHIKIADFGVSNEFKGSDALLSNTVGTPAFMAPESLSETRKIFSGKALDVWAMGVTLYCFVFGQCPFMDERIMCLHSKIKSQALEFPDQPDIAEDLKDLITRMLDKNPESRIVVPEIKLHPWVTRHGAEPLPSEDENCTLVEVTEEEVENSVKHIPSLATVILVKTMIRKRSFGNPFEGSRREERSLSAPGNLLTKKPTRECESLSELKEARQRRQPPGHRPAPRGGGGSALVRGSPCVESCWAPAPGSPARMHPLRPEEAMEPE

| ΔTm | Compound |
| --- | --- |
| 0.2 °C | N#C/C(=C\c1ccc(O)c(O)c1)C(=O)NCc1ccccc1 |
| 1.4 °C | COc1cc2ncnc(Nc3cccc(Br)c3)c2cc1OC |

These molecules were tested against Serine/threonine-protein kinase Chk2 (Homo sapiens, UniProt O96017).
Sequence of Serine/threonine-protein kinase Chk2 (O96017 whole entry): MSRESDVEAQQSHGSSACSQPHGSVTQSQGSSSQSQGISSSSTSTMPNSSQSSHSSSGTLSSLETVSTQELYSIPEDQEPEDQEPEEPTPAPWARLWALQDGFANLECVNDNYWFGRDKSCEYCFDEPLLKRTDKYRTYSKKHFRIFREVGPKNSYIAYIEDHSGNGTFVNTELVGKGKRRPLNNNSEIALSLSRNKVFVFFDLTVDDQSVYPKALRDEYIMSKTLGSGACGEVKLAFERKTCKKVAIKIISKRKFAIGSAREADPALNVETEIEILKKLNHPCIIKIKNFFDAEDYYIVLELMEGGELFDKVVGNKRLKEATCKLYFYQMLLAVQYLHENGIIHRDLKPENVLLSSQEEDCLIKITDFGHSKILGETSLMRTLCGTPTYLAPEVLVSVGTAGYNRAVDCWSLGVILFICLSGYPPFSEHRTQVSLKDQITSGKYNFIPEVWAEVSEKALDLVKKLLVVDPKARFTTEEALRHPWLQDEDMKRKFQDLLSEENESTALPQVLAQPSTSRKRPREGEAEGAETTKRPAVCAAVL

| ΔTm | Compound |
| --- | --- |
| 0.4 °C | N#C/C(=C\c1ccc(O)c(O)c1)C(=O)NCc1ccccc1 |
| 2 °C | COc1cc2ncnc(Nc3cccc(Br)c3)c2cc1OC |

Each molecule was assayed against Dual specificity protein kinase CLK1 (Homo sapiens) (UniProt P49759).

| ΔTm | Compound |
| --- | --- |
| 1 °C | N#C/C(=C\c1ccc(O)c(O)c1)C(=O)NCc1ccccc1 |
| 1.7 °C | COc1cc2ncnc(Nc3cccc(Br)c3)c2cc1OC |

These molecules were tested against Casein kinase I isoform gamma-2 (Homo sapiens) (UniProt P78368).
Sequence of Casein kinase I isoform gamma-2 (Homo sapiens) (P78368 whole entry, looked up, canonical isoform): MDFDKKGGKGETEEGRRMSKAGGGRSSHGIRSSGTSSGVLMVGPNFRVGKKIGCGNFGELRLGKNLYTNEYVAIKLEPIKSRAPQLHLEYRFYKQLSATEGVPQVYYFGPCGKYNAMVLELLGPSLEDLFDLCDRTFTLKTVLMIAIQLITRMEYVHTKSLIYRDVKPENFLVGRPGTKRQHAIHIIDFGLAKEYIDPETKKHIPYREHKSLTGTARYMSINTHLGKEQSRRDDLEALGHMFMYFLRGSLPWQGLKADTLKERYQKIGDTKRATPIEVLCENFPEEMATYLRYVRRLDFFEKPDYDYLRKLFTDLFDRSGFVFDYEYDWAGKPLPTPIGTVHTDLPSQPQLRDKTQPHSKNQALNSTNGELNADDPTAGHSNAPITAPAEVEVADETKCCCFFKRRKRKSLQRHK

| ΔTm | Compound |
| --- | --- |
| 0.7 °C | N#C/C(=C\c1ccc(O)c(O)c1)C(=O)NCc1ccccc1 |
| 0.6 °C | COc1cc2ncnc(Nc3cccc(Br)c3)c2cc1OC |

The molecules below were run against Casein kinase I isoform gamma-3 (Homo sapiens) (UniProt Q9Y6M4).

| ΔTm | Compound |
| --- | --- |
| 0.5 °C | N#C/C(=C\c1ccc(O)c(O)c1)C(=O)NCc1ccccc1 |
| -0.1 °C | COc1cc2ncnc(Nc3cccc(Br)c3)c2cc1OC |

What follows are molecules tested against Tyrosine-protein kinase JAK1 (Homo sapiens) (UniProt P23458).

| ΔTm | Compound |
| --- | --- |
| 1.3 °C | N#C/C(=C\c1ccc(O)c(O)c1)C(=O)NCc1ccccc1 |
| 2.7 °C | COc1cc2ncnc(Nc3cccc(Br)c3)c2cc1OC |

What follows are molecules tested against T2, Dual specificity mitogen-activated protein kinase kinase 6 (Homo sapiens) (UniProt P52564).
T2 sequence (whole entry): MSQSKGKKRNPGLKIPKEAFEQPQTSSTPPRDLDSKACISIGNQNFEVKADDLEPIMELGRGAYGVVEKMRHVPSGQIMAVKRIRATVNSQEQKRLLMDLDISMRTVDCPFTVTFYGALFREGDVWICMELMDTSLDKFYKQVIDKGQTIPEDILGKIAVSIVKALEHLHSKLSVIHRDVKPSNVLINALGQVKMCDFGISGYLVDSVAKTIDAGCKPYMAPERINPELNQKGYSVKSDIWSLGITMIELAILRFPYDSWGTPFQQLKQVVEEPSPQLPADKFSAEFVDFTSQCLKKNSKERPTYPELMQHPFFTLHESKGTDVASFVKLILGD

| ΔTm | Compound |
| --- | --- |
| 0.4 °C | N#C/C(=C\c1ccc(O)c(O)c1)C(=O)NCc1ccccc1 |
| 0.4 °C | COc1cc2ncnc(Nc3cccc(Br)c3)c2cc1OC |

The molecules below were run against Mitogen-activated protein kinase 3 (Homo sapiens, UniProt P27361).
Sequence of Mitogen-activated protein kinase 3 (P27361 whole entry): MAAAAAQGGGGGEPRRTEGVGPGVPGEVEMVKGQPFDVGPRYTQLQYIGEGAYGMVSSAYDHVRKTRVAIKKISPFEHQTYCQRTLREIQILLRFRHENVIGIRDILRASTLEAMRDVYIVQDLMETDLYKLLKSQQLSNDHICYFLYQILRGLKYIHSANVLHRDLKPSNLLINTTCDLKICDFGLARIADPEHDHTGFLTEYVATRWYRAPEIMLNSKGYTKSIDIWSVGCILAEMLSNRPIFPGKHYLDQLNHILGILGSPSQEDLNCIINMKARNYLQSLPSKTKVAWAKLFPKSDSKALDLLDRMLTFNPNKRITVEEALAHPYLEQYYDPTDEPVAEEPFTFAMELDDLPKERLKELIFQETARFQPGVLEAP

| ΔTm | Compound |
| --- | --- |
| 0.8 °C | N#C/C(=C\c1ccc(O)c(O)c1)C(=O)NCc1ccccc1 |
| 0.6 °C | COc1cc2ncnc(Nc3cccc(Br)c3)c2cc1OC |

Each molecule was assayed against Serine/threonine-protein kinase Nek6 (Homo sapiens) (UniProt Q9HC98).

| ΔTm | Compound |
| --- | --- |
| 1 °C | N#C/C(=C\c1ccc(O)c(O)c1)C(=O)NCc1ccccc1 |
| 0.5 °C | COc1cc2ncnc(Nc3cccc(Br)c3)c2cc1OC |

Each molecule was assayed against T3, 3-phosphoinositide-dependent protein kinase 1 (Homo sapiens) (UniProt O15530).
T3 sequence (whole entry): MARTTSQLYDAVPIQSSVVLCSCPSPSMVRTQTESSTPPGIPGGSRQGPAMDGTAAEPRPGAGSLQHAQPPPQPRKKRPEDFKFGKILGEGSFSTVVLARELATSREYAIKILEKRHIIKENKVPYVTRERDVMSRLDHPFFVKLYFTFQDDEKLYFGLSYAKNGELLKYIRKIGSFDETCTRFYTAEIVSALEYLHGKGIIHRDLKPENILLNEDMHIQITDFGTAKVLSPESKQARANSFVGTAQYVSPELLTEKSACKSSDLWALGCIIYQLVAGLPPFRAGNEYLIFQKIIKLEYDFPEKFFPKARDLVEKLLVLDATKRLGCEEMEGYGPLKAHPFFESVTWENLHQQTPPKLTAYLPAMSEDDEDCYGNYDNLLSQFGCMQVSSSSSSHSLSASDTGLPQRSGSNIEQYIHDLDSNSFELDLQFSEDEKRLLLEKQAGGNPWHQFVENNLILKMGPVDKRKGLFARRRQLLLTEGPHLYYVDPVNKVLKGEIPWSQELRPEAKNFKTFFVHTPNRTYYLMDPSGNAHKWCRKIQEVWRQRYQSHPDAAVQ

| ΔTm | Compound |
| --- | --- |
| 0.5 °C | N#C/C(=C\c1ccc(O)c(O)c1)C(=O)NCc1ccccc1 |
| 0 °C | COc1cc2ncnc(Nc3cccc(Br)c3)c2cc1OC |

These molecules were tested against cAMP-dependent protein kinase catalytic subunit alpha (Homo sapiens) (UniProt P17612).

| ΔTm | Compound |
| --- | --- |
| 0.6 °C | N#C/C(=C\c1ccc(O)c(O)c1)C(=O)NCc1ccccc1 |
| 0.4 °C | COc1cc2ncnc(Nc3cccc(Br)c3)c2cc1OC |

Each molecule was assayed against Serine/threonine-protein kinase RIO2 (Homo sapiens) (UniProt Q9BVS4).

| ΔTm | Compound |
| --- | --- |
| 1.5 °C | N#C/C(=C\c1ccc(O)c(O)c1)C(=O)NCc1ccccc1 |
| 1.2 °C | COc1cc2ncnc(Nc3cccc(Br)c3)c2cc1OC |

These molecules were tested against Ribosomal protein S6 kinase alpha-3 (Homo sapiens) (UniProt P51812).

| ΔTm | Compound |
| --- | --- |
| 0.6 °C | N#C/C(=C\c1ccc(O)c(O)c1)C(=O)NCc1ccccc1 |
| 1.5 °C | COc1cc2ncnc(Nc3cccc(Br)c3)c2cc1OC |

Each molecule was assayed against STE20-like serine/threonine-protein kinase (Homo sapiens) (UniProt Q9H2G2).
Sequence of STE20-like serine/threonine-protein kinase (Homo sapiens) (Q9H2G2 whole entry, looked up): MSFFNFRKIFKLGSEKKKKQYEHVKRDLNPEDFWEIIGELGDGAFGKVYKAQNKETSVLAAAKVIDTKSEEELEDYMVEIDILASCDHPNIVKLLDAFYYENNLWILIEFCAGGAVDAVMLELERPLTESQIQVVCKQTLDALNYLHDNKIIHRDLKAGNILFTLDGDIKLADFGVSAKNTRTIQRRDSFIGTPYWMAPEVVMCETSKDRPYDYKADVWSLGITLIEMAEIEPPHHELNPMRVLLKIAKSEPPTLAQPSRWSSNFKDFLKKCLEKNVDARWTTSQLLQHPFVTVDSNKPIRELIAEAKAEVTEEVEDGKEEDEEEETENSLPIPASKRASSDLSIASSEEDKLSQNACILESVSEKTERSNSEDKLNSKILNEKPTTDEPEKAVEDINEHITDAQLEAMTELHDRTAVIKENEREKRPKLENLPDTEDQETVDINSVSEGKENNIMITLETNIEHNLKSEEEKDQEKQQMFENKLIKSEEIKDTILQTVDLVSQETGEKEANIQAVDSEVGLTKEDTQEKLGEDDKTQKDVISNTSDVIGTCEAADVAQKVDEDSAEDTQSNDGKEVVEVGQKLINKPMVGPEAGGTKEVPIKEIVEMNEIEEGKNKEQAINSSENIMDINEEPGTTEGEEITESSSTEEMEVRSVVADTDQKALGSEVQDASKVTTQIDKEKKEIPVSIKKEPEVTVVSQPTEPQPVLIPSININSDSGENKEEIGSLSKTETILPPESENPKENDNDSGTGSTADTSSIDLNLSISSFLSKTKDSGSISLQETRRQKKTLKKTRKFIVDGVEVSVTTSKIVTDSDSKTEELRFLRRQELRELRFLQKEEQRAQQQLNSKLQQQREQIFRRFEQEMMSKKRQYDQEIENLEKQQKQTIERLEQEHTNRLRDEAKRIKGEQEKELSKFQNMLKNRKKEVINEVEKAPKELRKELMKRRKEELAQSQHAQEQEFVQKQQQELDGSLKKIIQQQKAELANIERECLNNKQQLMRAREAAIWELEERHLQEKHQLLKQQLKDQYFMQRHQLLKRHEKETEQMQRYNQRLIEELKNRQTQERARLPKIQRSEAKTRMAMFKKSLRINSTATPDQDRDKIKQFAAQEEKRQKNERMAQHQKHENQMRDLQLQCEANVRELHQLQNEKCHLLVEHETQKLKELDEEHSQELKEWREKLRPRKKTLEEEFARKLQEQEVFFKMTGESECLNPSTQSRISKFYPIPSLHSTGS

| ΔTm | Compound |
| --- | --- |
| 2.9 °C | N#C/C(=C\c1ccc(O)c(O)c1)C(=O)NCc1ccccc1 |
| 6.9 °C | COc1cc2ncnc(Nc3cccc(Br)c3)c2cc1OC |

Each molecule was assayed against TRAF2 and NCK-interacting protein kinase (Homo sapiens) (UniProt Q9UKE5).
Sequence of TRAF2 and NCK-interacting protein kinase (Homo sapiens) (Q9UKE5 whole entry, looked up): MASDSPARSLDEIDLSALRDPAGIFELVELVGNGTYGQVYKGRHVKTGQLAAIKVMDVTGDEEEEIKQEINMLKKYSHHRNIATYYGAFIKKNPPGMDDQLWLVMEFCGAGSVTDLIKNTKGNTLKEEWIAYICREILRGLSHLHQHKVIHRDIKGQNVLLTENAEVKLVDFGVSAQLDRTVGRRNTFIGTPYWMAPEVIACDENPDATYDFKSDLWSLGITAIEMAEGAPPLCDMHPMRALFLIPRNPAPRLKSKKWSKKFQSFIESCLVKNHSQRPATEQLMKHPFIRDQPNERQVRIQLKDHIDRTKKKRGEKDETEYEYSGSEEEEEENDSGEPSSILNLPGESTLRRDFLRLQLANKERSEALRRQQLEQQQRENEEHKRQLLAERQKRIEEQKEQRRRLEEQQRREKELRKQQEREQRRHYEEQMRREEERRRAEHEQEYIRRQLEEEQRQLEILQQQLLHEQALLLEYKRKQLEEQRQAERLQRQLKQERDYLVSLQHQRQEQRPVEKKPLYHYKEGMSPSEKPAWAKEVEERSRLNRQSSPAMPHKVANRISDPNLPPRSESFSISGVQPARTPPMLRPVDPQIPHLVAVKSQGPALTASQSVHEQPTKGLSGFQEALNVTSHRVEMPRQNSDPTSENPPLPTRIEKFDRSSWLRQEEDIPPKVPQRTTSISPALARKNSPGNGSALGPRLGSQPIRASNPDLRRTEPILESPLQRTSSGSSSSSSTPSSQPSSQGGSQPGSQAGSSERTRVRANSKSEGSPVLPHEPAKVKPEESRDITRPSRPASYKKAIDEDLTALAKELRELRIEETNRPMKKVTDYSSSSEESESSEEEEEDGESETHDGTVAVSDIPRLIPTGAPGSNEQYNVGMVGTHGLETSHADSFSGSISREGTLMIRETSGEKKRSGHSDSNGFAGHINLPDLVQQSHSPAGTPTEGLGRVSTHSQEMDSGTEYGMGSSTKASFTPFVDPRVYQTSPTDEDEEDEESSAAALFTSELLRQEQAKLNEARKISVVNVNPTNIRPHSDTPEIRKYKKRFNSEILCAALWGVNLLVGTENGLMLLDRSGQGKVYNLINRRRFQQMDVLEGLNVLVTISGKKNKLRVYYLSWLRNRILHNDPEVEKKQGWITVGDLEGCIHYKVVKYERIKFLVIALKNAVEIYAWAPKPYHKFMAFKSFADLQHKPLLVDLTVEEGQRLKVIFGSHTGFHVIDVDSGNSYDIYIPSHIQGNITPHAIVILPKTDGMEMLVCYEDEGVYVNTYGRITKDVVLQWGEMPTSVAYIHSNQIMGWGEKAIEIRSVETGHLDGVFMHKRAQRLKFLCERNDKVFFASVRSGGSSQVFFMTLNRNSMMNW

| ΔTm | Compound |
| --- | --- |
| 0.8 °C | N#C/C(=C\c1ccc(O)c(O)c1)C(=O)NCc1ccccc1 |
| 2 °C | COc1cc2ncnc(Nc3cccc(Br)c3)c2cc1OC |

These molecules were tested against T4, Serine/threonine-protein kinase VRK3 (Homo sapiens) (UniProt Q8IV63).
T4 sequence (whole entry): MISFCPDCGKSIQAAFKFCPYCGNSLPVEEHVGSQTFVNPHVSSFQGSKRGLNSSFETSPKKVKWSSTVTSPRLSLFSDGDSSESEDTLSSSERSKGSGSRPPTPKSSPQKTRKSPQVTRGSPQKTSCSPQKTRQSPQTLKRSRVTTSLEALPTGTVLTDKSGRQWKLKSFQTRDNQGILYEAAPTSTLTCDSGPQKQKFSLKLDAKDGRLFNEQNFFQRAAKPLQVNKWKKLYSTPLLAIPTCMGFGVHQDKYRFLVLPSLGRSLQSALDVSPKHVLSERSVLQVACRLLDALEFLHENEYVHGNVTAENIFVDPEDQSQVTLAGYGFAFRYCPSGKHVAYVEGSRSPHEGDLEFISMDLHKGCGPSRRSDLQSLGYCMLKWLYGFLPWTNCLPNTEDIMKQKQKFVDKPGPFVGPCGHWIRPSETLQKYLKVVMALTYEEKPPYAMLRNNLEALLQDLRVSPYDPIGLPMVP

| ΔTm | Compound |
| --- | --- |
| -0.2 °C | N#C/C(=C\c1ccc(O)c(O)c1)C(=O)NCc1ccccc1 |
| 0.3 °C | COc1cc2ncnc(Nc3cccc(Br)c3)c2cc1OC |

— ChEMBL document CHEMBL1145498, “A systematic interaction map of validated kinase inhibitors with Ser/Thr kinases” (Proc Natl Acad Sci U S A, 2007)
